# Square brackets hold non-standard residues; d marks the D form. Ends that are not written are not given here. Peptide text beside a SMILES is read from it. αMeF = C[C@](N)(Cc1ccccc1)C(=O)O
# T1: RXFP3 (Homo sapiens, UniProt Q9NSD7)
# T1 construct: expressed in transfected cells
# T1 sequence (Q9NSD7 1-469): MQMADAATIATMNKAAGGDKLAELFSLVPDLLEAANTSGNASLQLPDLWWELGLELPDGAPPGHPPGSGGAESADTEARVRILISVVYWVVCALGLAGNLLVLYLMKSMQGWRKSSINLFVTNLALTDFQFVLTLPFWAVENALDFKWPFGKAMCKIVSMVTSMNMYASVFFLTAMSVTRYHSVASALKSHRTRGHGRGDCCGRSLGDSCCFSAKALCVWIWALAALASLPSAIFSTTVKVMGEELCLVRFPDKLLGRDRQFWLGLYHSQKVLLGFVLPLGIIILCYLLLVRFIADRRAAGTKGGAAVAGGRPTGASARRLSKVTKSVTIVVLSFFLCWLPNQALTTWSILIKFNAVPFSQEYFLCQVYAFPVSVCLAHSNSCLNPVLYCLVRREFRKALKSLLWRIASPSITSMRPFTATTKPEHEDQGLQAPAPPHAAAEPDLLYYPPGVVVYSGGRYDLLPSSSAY
# T2: RXFP3 (relaxin family peptide receptor 3) on CHO-K1-RXFP3 cells (UniProt Q9NSD7 1-469, limits assumed)
# T2 sequence (looked up): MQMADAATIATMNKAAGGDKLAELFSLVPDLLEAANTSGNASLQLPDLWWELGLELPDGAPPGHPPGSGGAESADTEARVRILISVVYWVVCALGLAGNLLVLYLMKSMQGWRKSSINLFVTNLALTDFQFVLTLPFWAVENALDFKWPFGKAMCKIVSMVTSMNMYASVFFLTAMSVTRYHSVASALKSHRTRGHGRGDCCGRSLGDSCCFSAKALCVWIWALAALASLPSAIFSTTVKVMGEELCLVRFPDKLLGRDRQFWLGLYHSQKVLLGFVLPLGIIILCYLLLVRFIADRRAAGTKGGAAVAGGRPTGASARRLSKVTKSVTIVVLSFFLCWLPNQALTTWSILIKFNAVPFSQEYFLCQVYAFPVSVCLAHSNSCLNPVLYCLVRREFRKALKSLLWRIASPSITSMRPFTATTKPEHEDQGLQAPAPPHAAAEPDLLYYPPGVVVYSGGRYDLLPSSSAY
# Tests used:
# RXFP4 [1] = molecular target: T3, RXFP4 (Homo sapiens, UniProt Q8TDU9); assay: Eu-R3/I5 competition binding assay in CHO-K1-RXFP4 cells; design: expressed in transfected cells; details: read-out: Eu-R3/I5 pKi (converted)
# Procedure: An Eu-R3/15 competition binding assay in CHO-K1-RXFP4 cells was carried out.
# (§1) Competition binding curves for each peptide were performed in triplicate and each experiment was performed independently at least three times. Fluorescent measurements were carried out at excitation of 340 nm and emission of 614 nm on a BMG POLARstar plate reader (BMG Labtech, Melbourne, Australia). Pooled data were presented as mean±S.E.M. of specific binding and are fitted using a one-site binding curve in GraphPad Prism version 8 (GraphPad Inc., San Diego, USA). Statistical analyses were conducted using one-way analysis of variance with uncorrected Fisher's least significant difference (LSD) post-hoc analysis in GraphPad Prism version 9.
# (§2) An additional analogue of INSL5 was utilised as a control, INSL5-A13, having an A chain (SEQ ID NO: 9) and a B chain (SEQ ID NO: 10) with a first disulfide bond between Cys 1 of the A chain and Cys 7 of the B chain, and a second disulfide bond between Cys 14 of the A chain and Cys 19 of the B chain:
# (§3) Competition binding and cAMP activity assay were conducted by a procedure analogous to that described above for Example 3. The results are shown in FIG. 24 (RXFP3) and FIG. 25 (RXFP4).
# RXFP4 [2] = molecular target: T3, RXFP4; assay: Inhibition of forskolin-induced cAMP activity in CHO-K1-RXFP4 cells (pCRE β-galactosidase reporter); type: cell-based; design: expressed in transfected cells; details: for EC50: RXFP4, Table 5, read-out: cAMP pEC50 (converted)
# Procedure: For agonist assays, cells were stimulated with forskolin (5 μM for RXFP3, 1 μM for RXFP4)±increasing concentrations of each peptide for 6 hours. Data were expressed as the % forskolin activity, whereby 100% was defined as forskolin alone and 0% as maximum agonist stimulation (1 μM Analogue 2 for RXFP3 and 1 μM Analogue 13 for RXFP4). Data were analysed and plotted using GraphPad Prism 9 and are expressed as the mean±SEM of the pooled data. Statistical analysis was conducted using one-way ANOVA with Uncorrected Fisher's LSD post-hoc analysis using GraphPad Prism 9.
# as §2, §3
# RXFP4 [3] = molecular target: T3, RXFP4; assay: SmBiT-R3/I5 NanoBiT competition binding assay, HEK-LgBiT-RXFP4 membrane fractions; design: expressed in transfected cells; details: RXFP4, 2 nM SmBiT-R3/I5; Table 5; read-out: SmBiT R3/I5 pKi (converted)
# Procedure: Furthermore, a SmBiT-R3/15 competition binding assay was performed. All peptides were examined for their binding affinity to RXFP4 utilizing a competition NanoLuc® Binary Technology (NanoBiT™) binding assay. Briefly, HEK-LgBiT-RXFP4 crude membrane fractions (25 μg protein) were incubated with 2 nM SmBiT-R3/15 and increasing concentrations of competing peptides in binding buffer (0.5% BSA, 20 mM HEPES pH 7.5, 1.5 mM CaCl2), 50 mM NaCl) in a total of 100 μL in 96-well Optiplates (PerkinElmer, Waltham MA, USA). After 1 hour of shaking at room temperature, 1.25 μM final concentration of coelenterazine 400a was added, and luminescence measurements were recorded using a MicroBeta Microplate Counter (PerkinElmer, Waltham MA, USA). Each concentration-response curve was tested in triplicate, and each experiment was repeated at least three times with data being expressed as the mean±standard error of the mean (S.E.M) % specific.
# RXFP3 [4] = molecular target: T1, RXFP3; assay: Eu-H3B1-22R competition binding assay in CHO-K1-RXFP3 cells; details: 5 nM Eu-H3B1-22R, mean ± SEM (n), Table 2, read-out: Eu-H3B1-22R pKi (converted)
# Procedure: An Eu-H3B1-22R competition binding assay was conducted in CHO-K1-RXFP3 cells.
# as §1, §3
# RXFP3 [5] = molecular target: T1, RXFP3; assay: Inhibition of forskolin-induced cAMP activity in CHO-K1-RXFP3 cells (pCRE β-galactosidase reporter); type: cell-based; details: 5 μM forskolin, 6 hours, Table 2, read-out: cAMP pEC50 (converted)
# Procedure: Since RXFP3 is coupled to Gi/o proteins, peptides were tested for their ability to activate RXFP3 as measured via their ability to inhibit forskolin-induced cAMP activity in CHO-K1-RXFP3 or CHO-K1-RXFP4 cells transfected with a pCRE (cAMP Response Element) β-galactosidase reporter plasmid (as described in Belgi, A et al., Structure and function relationship of murine insulin-like peptide 5 (INSL5): free C-terminus is essential for RXFP4 receptor binding and activation. Biochemistry 2011, 50 (39), 8352-61; and Haugaard-Kedstrom, L. M et al., Synthesis and pharmacological characterization of a europium-labelled single-chain antagonist for binding studies of the relaxin-3 receptor RXFP3. Amino Acids 2015, 47 (6), 1267-71). For agonist assays, cells were stimulated with forskolin (5 μM for RXFP3, 1 μM for RXFP4)±increasing concentrations of each peptide for 6 hours. Data were expressed as the % forskolin activity, whereby 100% was defined as forskolin alone and 0% as maximum agonist stimulation (1 μM Analogue 2 for RXFP3 and 1 μM Analogue 13 for RXFP4). Data were analysed and plotted using GraphPad Prism 9 and are expressed as the mean±SEM of the pooled data. Statistical analysis was conducted using one-way ANOVA with Uncorrected Fisher's LSD post-hoc analysis using GraphPad Prism 9.
# as §3
# [6] = In vitro serum stability in human serum at 37° C.; details: serum
# Procedure: Human serum (400 μl) was mixed with 200 μg peptide dissolved in 100 μl of water at 37° C. Eighty (80) μl of sample was removed at various time points (0 min, 30 min, 60 min, 120 min, 240 min, and 480 min), and 160 μl of acetonitrile added to precipitate plasma proteins. The solution was then centrifuged at 12000 rpm for 15 min at 4° C. 200 μl of supernatant was taken and mixed with 240 μl of milli-Q water and each sample analysed by RP-HPLC (2×80 μL injection) by measuring the area under the peak at appropriate retention times compared to the peak area of the peptide at time zero (100%). Data analysis (n=3, duplicate) was performed using a non-linear fit one-phase decay model in GraphPad Prism 9.
# [7] = molecular target: RXFP3 (relaxin family peptide receptor 3) on CHO-K1-RXFP3 cells (UniProt Q9NSD7); assay: cell-based or functional assay
# [8] = molecular target: RXFP3-NLuc (human RXFP3 with Nanoluciferase on the C-terminus) (human) (UniProt Q9NSD7); assay: cell-based or functional assay
# [9] = molecular target: RXFP4 (relaxin family peptide receptor 4) on CHO-K1-RXFP4 cells (UniProt Q8TDU9); assay: cell-based or functional assay
# [10] = molecular target: RXFP4-NLuc (nanoluciferase-tagged RXFP4) (UniProt Q8TDU9); assay: cell-based or functional assay
# [11] = molecular target: RXFP3 (relaxin family peptide receptor 3) on CHO-K1-RXFP3 cells (UniProt Q9NSD7); assay: competition with 5 nM Eu-H3B1-22R on CHO-K1-RXFP3 cells
# [12] = molecular target: RXFP4 (relaxin family peptide receptor 4) on CHO-K1-RXFP4 cells (UniProt Q8TDU9); assay: competition with 5 nM Eu-DTPA-R3/I5 on CHO-K1-RXFP4 cells
# [13] = molecular target: T2, RXFP3 (relaxin family peptide receptor …); assay: cell-based or functional assay
# T3 sequence (Q8TDU9 whole entry): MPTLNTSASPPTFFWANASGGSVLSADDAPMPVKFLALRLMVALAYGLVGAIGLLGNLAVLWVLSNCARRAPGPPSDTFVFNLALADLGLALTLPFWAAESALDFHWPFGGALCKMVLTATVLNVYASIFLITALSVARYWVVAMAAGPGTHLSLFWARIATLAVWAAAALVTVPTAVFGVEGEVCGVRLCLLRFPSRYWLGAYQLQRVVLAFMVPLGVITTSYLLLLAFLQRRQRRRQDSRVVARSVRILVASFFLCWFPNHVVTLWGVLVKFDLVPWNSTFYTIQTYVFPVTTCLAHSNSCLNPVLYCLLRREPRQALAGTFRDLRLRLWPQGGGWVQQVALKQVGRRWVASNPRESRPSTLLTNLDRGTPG
# Chain of RXFP4 (relaxin family peptide receptor 4) on CHO-K1-RXFP4 cells (Q8TDU9 whole entry): as above
# Chain of RXFP4-NLuc (nanoluciferase-tagged RXFP4) (Q8TDU9 whole entry): as above
molecule,measurement,setting,value
CC[C@H](C)[C@H](NC(=O)[C@H](Cc1ccc(O)cc1)NC(=O)[C@@H](NC(=O)[C@@H](NC(=O)[C@](C)(Cc1ccccc1)NC(=O)[C@H](CCCNC(=N)N)NC(=O)[C@@H](NC(=O)[C@H](Cc1ccc(O)cc1)NC(=O)[C@](C)(Cc1ccccc1)NC(=O)[C@H](CC(C)C)NC(=O)CNC(=O)[C@@H](N)CO)[C@@H](C)CC)C(C)C)[C@@H](C)CC)C(=O)N[C@@H](CO)C(=O)NCC(=O)NCC(=O)N[C@@H](CO)C(=O)N[C@@H](CCCNC(=N)N)C(=O)N[C@@H](Cc1c[nH]c2ccccc12)C(=O)O [aF stapled analogue] (H-SGL[αMeF]YIR[αMeF]VIYISGGSRW-OH),Ki,"RXFP4 [1]; RXFP4, Table 5",158 nM
same,EC50,RXFP4 [2],87.1 nM
same,Ki,RXFP4 [3],30.9 nM
SGREFIRAVIFTSGGSRW-OH [H3B10-27],Ki,RXFP3 [4],> 10000 nM
same,EC50,RXFP3 [5],> 10000 nM
same,Ki,"RXFP4 [1]; RXFP4, CHO-K1-RXFP4 cells, 5 nM Eu-R3/I5, Table 3",> 10000 nM
same,cAMP pEC50,"RXFP4 [2]; RXFP4, CHO-K1-RXFP4 cells, 1 μM forskolin, 6 hours, Table 3",No activity (3)
same,half-life at 400 µg/mL,[6],~20 min
"R3/I5 (R3/I5 chimeric relaxin peptide, RXFP3 agonist) (ligand)",cAMP pEC50,[7],8.89
same,"RXFP3 pEC50 (β-arrestin2 recruitment, NanoBRET AUC)",[8],7.91
same,cAMP pEC50,[9],8.98
same,"RXFP4 pEC50 (β-arrestin2 recruitment, NanoBRET AUC)",[10],7.56
same,pKi,[11],7.77
same,pKi,[12],8.28
CC[C@H](C)[C@H](NC(=O)[C@H](Cc1ccc(O)cc1)NC(=O)[C@@H](NC(=O)[C@@H](NC(=O)[C@](C)(Cc1ccccc1)NC(=O)[C@H](CCCNC(=N)N)NC(=O)[C@@H](NC(=O)[C@H](Cc1ccc(O)cc1)NC(=O)[C@](C)(Cc1ccccc1)NC(=O)[C@H](CC(C)C)NC(=O)CNC(=O)[C@@H](N)CO)[C@@H](C)CC)C(C)C)[C@@H](C)CC)C(=O)N[C@@H](CCC(=O)O)C(=O)NCC(=O)NCC(=O)N[C@@H](CO)C(=O)N[C@@H](CCCNC(=N)N)C(=O)N[C@@H](Cc1c[nH]c2ccccc12)C(=O)O [πI5B7-24-GG-S19E] (H-SGL[αMeF]YIR[αMeF]VIYIEGGSRW-OH; N-terminus and C-terminus assumed),EC50,RXFP4 [2],40.7 nM
same,Ki,RXFP4 [3],7.41 nM
SGREFIRAVIFTSGGSRW [H3B10-27 (native B10-27)],cAMP pEC50,[13],< 5
